Consider 86 compounds from a melting point compilation (Tetko et al.; mined from patent text by program, amines drawn as free bases though some values may be those of a salt).

In the case of `O=C(c1ccccc1)C(O)CC(Cl)CCCl` (stereo unspecified), the melting point lay within 39 to 41 °C.

In turn, `COc1cc(Nc2c(C#N)cnc3cc(-c4ccccc4CN4CCOCC4)ccc23)c(Cl)cc1Cl` came in with a melting point of 107 to 109 °C.

In the case of `CC(=O)NC1=C(c2cccc(C(F)(F)F)c2)C(=O)OC1`, the melting point stood at 140 °C.

Compound `NC1=Nc2ccc(Br)cc2C2CCCC12F` (stereo unspecified) had a melting point of 220 °C.

For the compound `CC(C)(Oc1ccc(CCC(=O)c2ccc(-c3ccc(Br)cc3)s2)c(Cl)c1Cl)C(=O)O`, the melting point lay in the range of 155 to 157 °C.

In turn, `CCCCCS(=O)(=O)NC(=O)CCc1ccc(OCCN2CCCC2=O)cc1Oc1ncc(C(F)(F)F)cc1Cl` came in with a melting point of 123 to 126 °C.

`COC(=O)CCc1cc(C(=O)c2cccc(C#N)c2)ccc1OCCCCC=Cc1ccc(OC)cc1` returned a melting point of 65 to 67 °C.

`c1csc(-c2cnc(COc3ccc(CCCn4ccnc4)cc3)s2)c1`: the melting point lay in the range of 82 to 84 °C.

Turning to `CCNc1nc2c(ccc3[nH]c4cnc(C(=O)OC(C)C)c(CC)c4c32)s1`, the melting point was in the range of 275 to 276 °C.

Take `Cn1c(-c2ccc(OC3CCN(C4CCC4)CC3)cc2)nc2ccccc2c1=O`: the melting point was 168 to 171 °C.

As to `CN(C)CCNC(=O)C(=O)c1ccc(OCCOc2ccc3ccccc3c2)cc1`, the melting point lay within 102 to 104 °C.

As for `CN(CCOc1ccc(Cl)c2c1CC(=O)N2)c1cccs1`, the melting point fell in the range of 203 to 204 °C.

With `O=c1nc(-c2cccc(CCOP(=O)(O)O)n2)sc2ccccc12`, the melting point fell in the range of 235 to 237 °C.

For `NC(=O)c1cc2cc(N3CCNCC3)ccc2o1`, the melting point fell in the range of 252 to 255 °C.

As to `CN1CCN(CC(=O)Nc2ccc3c(c2)C(=O)c2cc(NC(=O)CN4CCN(C)CC4)ccc2C3=O)CC1`, the melting point was 173 °C.

For the compound `N=C(NNC=O)c1ccc(-c2ccc(Cl)cc2)o1`, the melting point was in the range of 155 to 157 °C.

For the compound `CCOP(=O)(/C=C/c1cn(-c2ccccc2)nc1OCc1ccc(OCc2nc(-c3cccc(CC(=O)O)c3)oc2C)c(OC)c1)OCC`, the melting point fell in the range of 174 to 175 °C.

The compound `O=C(O)COc1ccc2c(=O)c3ccccc3oc2c1Cl` gave a melting point of 280 to 281 °C.

For `CCCCc1nn(-c2cc(NC(=O)CC)ccc2C(F)(F)F)c(=O)n1Cc1ccc(-c2ccccc2S(=O)(=O)NC(=O)c2ccccc2Cl)cc1F`, the melting point lay within 181 to 183 °C.

Regarding `N=C(N)Nc1nc2c(s1)CCN(C(=O)c1ccc(NC(=O)c3ccccc3-c3ccccc3)cc1)c1ccccc1-2`, the melting point is greater than 250 °C.

`COc1cccc(CC(c2ccccc2)N(CCO)CCO)c1` (stereo unspecified) returned a melting point of 67 to 69 °C.

Consider `CC(C)CC(=O)c1cn(C)cc(-c2cccc(C(F)(F)F)c2)c1=O`, for which the melting point was 110 to 112 °C.

For the compound `COc1ccc(C(=O)c2ccccc2C(F)(F)F)c(O)c1Cl`, the melting point lay within 101 to 102 °C.

`CCCn1cc2c(C3C(=O)Nc4ccc(Br)cc43)nc(NCC3CCCN3)nc2n1` (stereo unspecified) registered a melting point of 286 to 293 °C.

As for `CCCCCCCCCCCCCCCCOc1ccc(OCC(=O)NCCc2ccccn2)cc1`, the melting point lay within 74 to 75 °C.

`COC(=O)c1c(F)cc(OCCNC(=O)C2Cc3ccccc3N2S(=O)(=O)c2ccc(-c3ccc(F)cc3Cl)cc2)cc1F` (stereo unspecified) yielded a melting point of 68 to 74 °C.

The compound `NC(CCCCCCCCC(N)=NO)=NO` displayed a melting point of 182 °C.

The compound `CC1(C)COC(c2ccc(N)c(N)c2)(c2cccs2)OC1` yielded a melting point of 178 °C.

In the case of `C1=C(c2ccccc2)CSS1`, the melting point was in the range of 122 to 124 °C.

In turn, `Cc1ccc(C2CCN(CCCCNC(=O)c3ccc(-c4ccc(C#N)cc4)cc3)CC2)c(O)c1` displayed a melting point of 184 °C.

In the case of `C=CCN1C(C)(C)CC(=C2CC(C)(C)N(CC=C)C(C)(C)C2)CC1(C)C`, the melting point lay within 147 to 148 °C.

Turning to `Nc1nc2c(ncn2C2CC(CO)C(O)C2F)c(=O)[nH]1` (stereo unspecified), the melting point lay in the range of 266 to 269 °C.

The compound `COC(=O)c1cc(CCNc2ncnc3nccnc23)ccc1Oc1cc(C(F)(F)F)ccn1` gave a melting point of 171 to 172 °C.

Compound `O=C(O)c1ccc(-c2ccc(O)c(F)c2)cc1` gave a melting point of 254 to 256 °C.

As for `O=C(Nc1c(C(O)(C(F)(F)F)C(F)(F)F)ccc2ccccc12)c1cccc(C(F)(F)F)c1`, the melting point lay in the range of 187 to 188 °C.

`CCCc1nc2c(N)nc3ccccc3c2n1CCc1cc(-c2ccc(F)cc2)no1` displayed a melting point of 208 to 209 °C.

Regarding `Cc1cc(N2CCc3ccccc32)nc(N)n1`, the melting point was 242 to 244 °C.

Compound `CCCCNC(=O)ONC(=O)Cc1ccc2c(C(=O)OCC)c(N)c(C(=O)OCC)c-2cc1` returned a melting point of 178 to 179 °C.

Take `O=C(CCc1ccccc1)N[C@H](Cc1ccc(C(F)(F)F)cc1)[C@@H](O)c1ccc(F)cc1` (racemic): the melting point fell in the range of 144 to 145 °C.

Regarding `C#CCC(Oc1cccc(C)c1C)C1=NCCN1` (stereo unspecified), the melting point was 70 to 73 °C.

Regarding `COCCOc1ccc(CCCOC(=O)NS(=O)(=O)NCCOC(C)C)c(Oc2ncc(Cl)cc2Cl)c1`, the melting point lay in the range of 87.5 to 88.4 °C.

Compound `CNc1nc(C)c(-c2nc3ccccc3c(=O)n2-c2cccc(C)c2)s1` returned a melting point greater than 275 °C.

With `CCN(Cc1ccccc1)C(=O)Cc1c(-c2ccc(C)cc2)nc2cc(C)ccn12`, the melting point fell in the range of 220 to 222 °C.

Compound `CCCN1CCn2c(=O)[nH]c3cccc(c32)C1C` (stereo unspecified) showed a melting point of 124 °C.

`COc1cc2c(c(OC(=O)Cc3ccccc3)c1OC)=NC(=O)C(=O)N=2`: the melting point was in the range of 298 to 300 °C.

The compound `C#CCn1c(-c2cc(Cl)nc(Cl)c2)nn(C(C)(C)C)c1=O` displayed a melting point of 107 to 109 °C.

In turn, `COc1ccc(N(C(C)=O)S(=O)(=O)c2ccc(C)cc2)c([N+](=O)[O-])c1` displayed a melting point of 172 to 174 °C.

For the compound `CC(C)(C)C(Cl)=NNc1cc(Cl)ccc1Cl`, the melting point lay in the range of 50 to 51 °C.

In turn, `O=C(Nc1ccc(C(=O)N2Cc3ccccc3Cc3ccccc32)cc1)c1ccccc1-c1ccccc1` had a melting point of 224 to 225 °C.

Regarding `Oc1ccc(Br)cc1C=Nc1cc(Cl)cc(Cl)c1`, the melting point lay in the range of 161 to 163 °C.

Turning to `CCN1c2ncc(COc3ccccc3O)cc2C(=O)N(C)c2ccc(Cl)nc21`, the melting point fell in the range of 172 to 173 °C.

Consider `CC(=O)NC[C@H]1CN(c2ccc(N3CCC(=CC#N)CC3)c(F)c2)C(=O)O1`, for which the melting point was in the range of 159 to 160 °C.

`O=C1NC2(CCCc3sccc32)c2ccccc21` (stereo unspecified): the melting point is 224 to 226 °C.

As for `COc1cc(OC)c2cc(S(=O)(=O)Cc3ccc(OC)c([N+](=O)[O-])c3)c(=O)oc2c1`, the melting point lay in the range of 224 to 225 °C.

`COc1ccc(-c2ccc(C=O)c3occc23)cc1` showed a melting point of 104 to 105 °C.

For the compound `CCCCc1nc2sc(C(=O)O)cc2n1Cc1ccc(-c2ccccc2C(=O)O)cc1`, the melting point was 264 °C.

Consider `CCCCCCCCCCCCNC(=O)OCc1ccc(OC(C)=O)c(OC)c1`, for which the melting point was 54 to 56 °C.

`CCOC(=O)C1CCN(c2nc(COc3ccc(CO)cc3OC)c(C)s2)CC1` gave a melting point of 84 to 85 °C.

`COC(=O)c1cccc(NC(=O)C(C)CSC(C)=O)n1` (stereo unspecified) showed a melting point of 75 to 77 °C.

In turn, `CN(Cc1cc2c3c(c1)c(=O)c(C(=O)NCc1ccc(Cl)cc1)cn3CC(=O)N2C)C[C@@H](O)c1nccs1` registered a melting point of 125 to 130 °C.

The compound `CN1CCc2c(-c3ccc(F)cc3)ccc([N+](=O)[O-])c2C1` returned a melting point of 140 to 143 °C.

For the compound `CCOC(=O)c1nccn1C1Cc2ccccc2C1=O` (stereo unspecified), the melting point was 116 °C.

`CC(=O)Nc1ccc(/C=C/C(=O)NCC(=O)N(C)c2ccc(Cl)c(CBr)c2Cl)cn1` displayed a melting point of 222 to 223 °C.

As for `Cc1cc(CCc2ccc(-c3ccc(C(F)(F)F)cc3)cc2)ccc1OCC(=O)O`, the melting point was in the range of 174 to 176 °C.

`O=C(O)[C@@H]1C[C@H](O)CN1C(=O)c1ccccc1` registered a melting point of 133 to 136 °C.

As for `CCCCC(=O)C(=Cc1ccc(Cl)cc1)n1cncn1`, the melting point lay within 117 to 120 °C.

As to `CCCCOCCOc1ccc(-c2ccc3c(c2)C=C(C(=O)Nc2ccc(S(=O)Cc4nncn4CCC)nc2)CCN3CC(C)C)cc1` (stereo unspecified), the melting point fell in the range of 135 to 138 °C.

The compound `O=C(O)c1cccc(NC(=O)C(CS)CC2CN(Cc3ccccc3)CCO2)c1` (stereo unspecified) returned a melting point of 110 to 112 °C.

Compound `CC1CC(C)(C)C(O)(CO)C1Cc1ccc(Cl)cc1` (stereo unspecified) returned a melting point of 93 to 94 °C.

On to `CCCn1nnn(-c2ccc([N+](=O)[O-])cc2)c1=O`, for which the melting point was 91.1 °C.

Consider `C1=NNSc2ccccc21`, for which the melting point came to 314 °C.

`Cc1ccc(C(=O)NCc2ccc(O)c3ncccc23)cc1` returned a melting point of 137 to 139 °C.

For `CCOC(=O)C(C)O/N=C(\C(=O)Sc1nc2ccccc2s1)c1csc(N)n1` (stereo unspecified), the melting point amounted to 113 °C.

Regarding `CCC1(CCCCN2CCN(c3ccccn3)CC2)C(=O)Nc2ccc(Cl)cc21` (stereo unspecified), the melting point lay within 154 to 156 °C.

Take `O=C1CNc2cc(Br)c(F)cc2N1`: the melting point fell in the range of 214 to 216 °C.

On to `CS(=O)(=O)CCNC(=O)c1cccc(-c2ccc3c(c2)C(c2ccc(Cl)cc2Cl)CC3)c1` (stereo unspecified), for which the melting point lay within 193 to 194 °C.

In the case of `CNS(=O)(=O)c1ccccc1Nc1nc(Nc2ccc3c(c2)CCCC(=O)N3CC(=O)N2CCN(C)CC2)ncc1Cl`, the melting point lay within 148 to 151 °C.

Consider `CCOC(=O)C(C)n1cc(-c2ccc(Oc3ccccc3)cc2)c2c(N)ncnc21` (stereo unspecified), for which the melting point lay within 139 to 140 °C.

Turning to `N#CNC(=NCCc1ccccc1Cl)c1cncc(NC(=O)c2ccccc2)c1`, the melting point amounted to 220 °C.

Turning to `O=C(NNc1ccccc1)C1CSC(c2cccnc2)N1` (stereo unspecified), the melting point turned out to be 155 °C.

`CCCc1c(COc2ccc(Cc3nnn(CCCCCCc4nnn[nH]4)n3)cc2)ccc(C(C)=O)c1O`: the melting point lay within 110 to 113 °C.

`CCNC(=O)c1cc(NCn2nnc3ccccc32)ccc1[Si](C)(C)C` yielded a melting point of 207 to 208 °C.

For the compound `O=C(NC(CCC(=O)N1CCCC1C(=O)O)C(=O)O)c1ccccc1` (stereo unspecified), the melting point lay within 102 to 104 °C.

In turn, `O=C(Nc1cc2[nH]c(=O)c(=O)[nH]c2cc1[N+](=O)[O-])C(F)(F)F` came in with a melting point greater than 320 °C.

Compound `COCc1cc2c(Nc3cccc(Cl)c3)ncnc2[nH]1` came in with a melting point of 226 to 230 °C.

The compound `CCOC(=O)c1ncc(-c2cccs2)s1` gave a melting point of 68 to 69 °C.
